Data as given in patent publication US12668600B2 (Kumquat Biosciences Inc., priority 2023, dated 2026).

Experiments:
Type in all cases: biochemical
KRAS G12S = molecular target: T1, KRAS G12S (Homo sapiens, UniProt P01116, G12S); experiment: HTRF KRAS-SOS1 interaction assay, KRAS G12S; conditions: binned ≤2 μM / >2 μM, read-out: Inhibition of KRAS G12S (IC50)
T1 construct: made in house; host or cells: E. coli, e.g. BL21 (DE3)
In short: (§1)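 GST-tagged KRAS (WT or mutant) with anti-GST-Eu donor and His-hSOS1 with anti-6His-XL665 acceptor were combined in 5 mM HEPES pH 7.4, 150 mM NaCl, 1 mM DTT, 0.05% BSA, 0.0025% Igepal. After ~10 min, HTRF was read (ex 337, em 620/665 nm); IC50 from 665/620 ratio.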

KRAS G12D = molecular target: T2, KRAS G12D (Homo sapiens, UniProt P01116, G12D); experiment: HTRF KRAS-SOS1 interaction assay, KRAS G12D; conditions: binned ≤2 μM / >2 μM, read-out: Inhibition of KRAS G12D (IC50)
T2 construct: made in house; host or cells: E. coli, e.g. BL21 (DE3)
In short: as §1

KRAS WT = molecular target: T3, KRAS WT (Homo sapiens, UniProt P01116); experiment: HTRF KRAS-SOS1 interaction assay, wildtype KRAS; conditions: binned ≤2 μM / >2 μM, read-out: Inhibition of KRAS WT (IC50)
T3 construct: made in house; host or cells: E. coli, e.g. BL21 (DE3)
In short: as §1

KRAS G12V = molecular target: T4, KRAS G12V (Homo sapiens, UniProt P01116, G12V); experiment: HTRF KRAS-SOS1 interaction assay, KRAS G12V; conditions: binned ≤2 μM / >2 μM, read-out: Inhibition of KRAS G12V (IC50)
T4 construct: made in house; host or cells: E. coli, e.g. BL21 (DE3)
In short: as §1

T3 sequence (P01116 1-188 isoform P01116-2): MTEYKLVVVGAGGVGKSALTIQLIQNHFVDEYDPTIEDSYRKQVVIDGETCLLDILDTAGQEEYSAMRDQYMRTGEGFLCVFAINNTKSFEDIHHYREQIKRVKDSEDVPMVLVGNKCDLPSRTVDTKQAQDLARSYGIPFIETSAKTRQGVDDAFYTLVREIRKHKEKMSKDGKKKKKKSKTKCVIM
T1 sequence (P01116 1-188 isoform P01116-2 G12S): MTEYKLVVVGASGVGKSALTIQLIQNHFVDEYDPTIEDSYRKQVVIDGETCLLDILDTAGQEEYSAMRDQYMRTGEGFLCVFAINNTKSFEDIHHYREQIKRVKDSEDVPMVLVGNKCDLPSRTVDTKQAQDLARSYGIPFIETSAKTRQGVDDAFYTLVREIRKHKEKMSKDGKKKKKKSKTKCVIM
T4 sequence (P01116 1-188 isoform P01116-2 G12V): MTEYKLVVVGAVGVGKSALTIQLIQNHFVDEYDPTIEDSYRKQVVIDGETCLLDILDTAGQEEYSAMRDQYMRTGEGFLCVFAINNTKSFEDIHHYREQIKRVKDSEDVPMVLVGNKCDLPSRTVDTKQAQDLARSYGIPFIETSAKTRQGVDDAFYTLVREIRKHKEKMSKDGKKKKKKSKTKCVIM
T2 sequence (P01116 1-188 isoform P01116-2 G12D): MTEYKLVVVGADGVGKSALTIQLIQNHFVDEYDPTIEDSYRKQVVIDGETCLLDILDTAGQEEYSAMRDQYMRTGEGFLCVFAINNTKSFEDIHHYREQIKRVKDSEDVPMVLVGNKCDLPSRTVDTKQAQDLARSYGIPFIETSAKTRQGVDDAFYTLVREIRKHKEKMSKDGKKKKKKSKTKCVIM

| SMILES | IC50 (KRAS G12S) [µM] | IC50 (KRAS G12D) [µM] | IC50 (KRAS WT) [µM] | IC50 (KRAS G12V) [µM] |
| --- | --- | --- | --- | --- |
| N#Cc1c(N)sc2c(F)ccc(-c3c(C(F)(F)F)c4c5c(nc(OC[C@@]67CCCN6C[C@@]6(CC6(F)F)C7)nc5c3F)N([C@H](CCC(F)(F)F)c3cc(F)cnc3N)CCO4)c12 [Compound 617, 2-amino-4-(4-((R)-1-(2-amino-5-fluoropyridin-3-yl)-4,4,4-trifluorobutyl)-2-(((1S,7a′S)-2,2-difluorodihydro-1′H,3′H-spiro[cyclopropane-1,2′-pyrrolizin]-7a′(5′H)-yl)methoxy)-10-fluoro-8-(trifluoromethyl)-5,6-dihydro-4H-[1,4]oxazepino[5,6,7-de]quinazolin-9-yl)-7-fluorobenzo[b]thiophene-3-carbonitrile] | ≤ 2 | ≤ 2 | ≤ 2 | ≤ 2 |
| N#Cc1c(N)sc2c(F)ccc(-c3c(C(F)(F)F)c4c5c(nc(OC[C@@]67CCCN6C[C@H](F)C7)nc5c3F)N([C@H](CCn3cccn3)c3cccnc3N)CCO4)c12 [Compound 829, 2-amino-4-(4-((R)-1-(2-aminopyridin-3-yl)-3-(1H-pyrazol-1-yl)propyl)-10-fluoro-2-(((2R,7aS)-2-fluorotetrahydro-1H-pyrrolizin-7a(5H)-yl)methoxy)-8-(trifluoromethyl)-5,6-dihydro-4H-[1,4]oxazepino[5,6,7-de]quinazolin-9-yl)-7-fluorobenzo[b]thiophene-3-carbonitrile] | ≤ 2 | ≤ 2 | ≤ 2 | ≤ 2 |
| N#Cc1c(N)sc2c(F)ccc(-c3c(C(F)(F)F)c4c5c(nc(OC[C@@]67CCCN6C[C@H](F)C7)nc5c3F)N([C@H](CCC3CC3)c3cccnc3N)CCO4)c12 (single isomer, unassigned) [Compound 877] | ≤ 2 | ≤ 2 | ≤ 2 | ≤ 2 |
| C[C@H](c1cccnc1N)N1CCOc2c(C(F)(F)F)c(-c3ccc(F)c4sc(N)c(C#N)c34)c(F)c3nc(OC[C@@]45CCCN4CC(C#N)C5)nc1c23 (stereo partly drawn) [Compound 852, (7aS)-7a-(((9-(2-amino-3-cyano-7-fluorobenzo[b]thiophen-4-yl)-4-((R)-1-(2-aminopyridin-3-yl)ethyl)-10-fluoro-8-(trifluoromethyl)-5,6-dihydro-4H-[1,4]oxazepino[5,6,7-de]quinazolin-2-yl)oxy)methyl)hexahydro-1H-pyrrolizine-2-carbonitrile] | > 2 | > 2 | ≤ 2 | > 2 |
| C[C@H](c1cccnc1N)N1CCOc2c(C(F)(F)F)c(-c3ccc(F)c4sc(N)c(C#N)c34)c(F)c3nc(OCC4(CN5CCC(=C(F)F)CC5)CC4)nc1c23 (single isomer, unassigned) [Compound 884] | > 2 | > 2 | > 2 | > 2 |
| CO[C@H]1CCN(C)[C@@H]1[C@H](C)Oc1nc2c3c(c(C(F)(F)F)c(-c4ccc(F)c5sc(N)c(C#N)c45)c(F)c3n1)OCCN2[C@H](CCC(F)(F)F)c1cccnc1N [Compound 649, 2-amino-4-(4-((R)-1-(2-aminopyridin-3-yl)-4,4,4-trifluorobutyl)-10-fluoro-2-((S)-1-((2R,3S)-3-methoxy-1-methylpyrrolidin-2-yl)ethoxy)-8-(trifluoromethyl)-5,6-dihydro-4H-[1,4]oxazepino[5,6,7-de]quinazolin-9-yl)-7-fluorobenzo[b]thiophene-3-carbonitrile] | ≤ 2 | ≤ 2 | ≤ 2 | ≤ 2 |
| C[C@H](c1cccnc1N)N1CCOc2c(C(F)(F)F)c(-c3ccc(F)c4sc(N)c(C#N)c34)c(F)c3nc(OCC4(CN5CCC(F)CC5)CC4)nc1c23 [Compound 836, 2-amino-4-(4-((R)-1-(2-aminopyridin-3-yl)ethyl)-10-fluoro-2-((1-((4-fluoropiperidin-1-yl)methyl)cyclopropyl)methoxy)-8-(trifluoromethyl)-5,6-dihydro-4H-[1,4]oxazepino[5,6,7-de]quinazolin-9-yl)-7-fluorobenzo[b]thiophene-3-carbonitrile] | ≤ 2 | ≤ 2 | ≤ 2 | ≤ 2 |
